One data set is described as follows: Lethal dose was evaluated against flea. Particulars: pulicinae; call rule not given here.
Take `C=C(C)[C@H]1Cc2c3c(cc4c5c(n1c24)[C@@]1(C)[C@@H](CC[C@H]2[C@](C)(/C=C/C=C(\C)C(=O)OC)[C@@H](O)CC[C@@]21C)C5)C1=CC(C)(C)OC(C)(C)[C@H]1[C@@H]3O`: the LD90 was determined as 100 p.p.m.

In the case of `C=C(C)[C@H]1C(=O)c2c3c(cc4c5c(n1c24)[C@@]1(C)[C@@H](CC[C@H]2[C@](C)(/C=C/C=C(\C)C(=O)OC)[C@@H](O)CC[C@@]21C)C5)C1=CC(C)(C)OC(C)(C)[C@H]1[C@@H]3O`, the LD90 came out at 10 p.p.m. In the case of `C=C(C)[C@H]1Cc2c3c(cc4c5c(n1c24)[C@@]1(C)[C@@H](CC[C@H]2[C@](C)(/C=C/C=C(\C)C(=O)[O-])[C@@H](O)CC[C@@]21C)C5)C1=CC(C)(C)OC(C)(C)[C@H]1[C@@H]3O.[Na+]`, the LD90 stood at 100 p.p.m.

As for `C=C(C)[C@H]1C(=O)c2c3c(cc4c5c(n1c24)[C@@]1(C)C(CC[C@H]2[C@](C)(/C=C/C=C(\C)C(=O)O)[C@@H](O)CC[C@@]21C)C5)C1=CC(C)(C)OC(C)(C)C1[C@@H]3O` (stereo partly specified) [NOD ACID A], the LD90 turned out to be 1 p.p.m. Same read-out and setting: the result for `C=C(C)[C@H]1C(=O)c2c3c(cc4c5c(n1c24)[C@@]1(C)[C@@H](CC[C@@H]2[C@]1(C)CC[C@]1(O)O[C@H](/C=C(\C)C(=O)O)C[C@@]21C)C5)C1=CC(C)(C)OC(C)(C)[C@H]1[C@@H]3O` [NODULISPORIC ACID A1] reads 5 p.p.m. `C=C(C)[C@H]1C(=O)c2c3c(cc4c5c(n1c24)[C@@]1(C)[C@@H](CC[C@@H]2[C@]1(C)CC[C@]1(O)O[C@H](C(O)C(C)C(=O)O)C[C@@]21C)C5)C1=CC(C)(C)OC(C)(C)[C@H]1[C@@H]3O` (stereo partly specified) [NODULISPORIC ACID A2] showed an LD90 of 10 p.p.m. The compound IVERMECTIN yielded an LD90 of 10 p.p.m.

A further data set is described as follows: Lethal dose was evaluated against flea; NA means not active at 100 ppm. Type of data set: ADME. Particulars: pulicinae.
Take `C=C(C)[C@H]1Cc2c3c(cc4c2N1C(=O)[C@@]1(C)[C@@H](CC[C@H]2[C@](C)(/C=C/C=C(\C)C(=O)OC)[C@@H](O)CC[C@@]21C)CC4=O)C1=CC(C)(C)OC(C)(C)[C@H]1[C@@H]3O`: the LD90 result was “Not Active”. As for `C=C(C)[C@H]1Cc2c3c(cc4c5c(n1c24)[C@@]1(C)[C@@H](CC[C@@H]2[C@]1(C)CC[C@]1(O)O[C@H](C(O)C(C)C(=O)[O-])C[C@@]21C)C5)C1=CC(C)(C)OC(C)(C)[C@H]1[C@@H]3O.[Na+]` (stereo partly specified), the LD90 entry is “Not Active”. With `C=C(C)[C@H]1Cc2c3c(cc4c5c(n1c24)[C@@]1(C)[C@@H](CC[C@@H]2[C@]1(C)CC[C@]1(O)O[C@H](/C=C(\C)C(=O)[O-])C[C@@]21C)C5)C1=CC(C)(C)OC(C)(C)[C@H]1[C@@H]3O.[Na+]`, the LD90 result is “Not Active”.

A further data set is described as follows: Lethal dose was evaluated against flea; partial activity. Type of data set: ADME. Particulars: pulicinae.
The compound `C=C(C)[C@H]1Cc2c3c(cc4c5c(n1c24)[C@@]1(C)[C@@H](CC[C@H]2[C@](C)(/C=C/C=C(\C)C(=O)OC)[C@@H](O)CC[C@@]21C)C5)C1=CC(C)(C)OC(C)(C)[C@H]1[C@@H]3O` returned an LD90 of 10 p.p.m.
